# Laboratory results taken from ChEMBL document CHEMBL1201862, “PubChem BioAssay data set” (2004).
#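 Briefly, cells in 96-well plates were exposed to five compound concentrations for 48 h, and endpoints were estimated by linear interpolation. Abbreviation: GI50, concentration required for 50% inhibition of growth.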 Calls of active or inactive are those of the source. No stated cut-off is given here; in the data, active = GI50 up to about 1.1 µM and inactive = higher.
# How the values were obtained:
# Assay in all cases: growth of human tumour cells (NCI), 48 h
# SNB-78 = tested on: SNB-78
# KM-20L2 = tested on: KM-20L2
# HOP-18 = tested on: HOP-18
# DMS-273 = tested on: DMS-273
# M19-MEL = tested on: M19-MEL
# DMS-114 = tested on: DMS-114
# DLD-1 = tested on: DLD-1
# RXF 631 = tested on: RXF 631
# LXFL 529 = tested on: LXFL 529
Compound,GI50 (SNB-78),GI50 (KM-20L2),GI50 (HOP-18),GI50 (DMS-273),GI50 (M19-MEL),GI50 (DMS-114),GI50 (DLD-1),GI50 (RXF 631),GI50 (LXFL 529)
CN1CCN(c2ccc3[nH]c(-c4ccc5[nH]c(-c6ccc(O)cc6)nc5c4)nc3c2)CC1,265 µM (inactive),158 µM (inactive),209 µM (inactive),21.6 µM (inactive),18.1 µM (inactive),38.5 µM (inactive),178 µM (inactive),,
Cc1c(CNc2ccc(Cl)c(C(=O)NC(CC(=O)O)C(=O)O)c2)ccc2nc(N)nc(N)c12 (centres undefined),> 100 µM (inactive),0.665 µM (active),> 54.8 µM (inactive),0.0617 µM (active),13.7 µM (inactive),0.038 µM (active),0.0631 µM (active),,
CC(C)S(=O)(=O)ON1C(=O)c2ccc(N(C)C)cc2C1=O,31.3 µM (inactive),20.4 µM (inactive),13.5 µM (inactive),19.8 µM (inactive),,,,13.2 µM (inactive),9.91 µM (inactive)
CCCCCCCCCOC(=S)NC,,18 µM (inactive),19.6 µM (inactive),18.3 µM (inactive),23.4 µM (inactive),,16.6 µM (inactive),21 µM (inactive),17.8 µM (inactive)
NNC(=O)CCC(=O)Nc1ccc(Cl)cc1Cl,> 100 µM (inactive),> 100 µM (inactive),,31.8 µM (inactive),> 100 µM (inactive),> 100 µM (inactive),> 100 µM (inactive),> 100 µM (inactive),29.7 µM (inactive)
O=[N+]([O-])c1cccc(/C=N\NS(=O)(=O)c2ccc(Cl)cc2)c1O,> 100 µM (inactive),> 100 µM (inactive),37.1 µM (inactive),> 100 µM (inactive),> 100 µM (inactive),,55.5 µM (inactive),> 100 µM (inactive),83.6 µM (inactive)
Cc1cc(Cl)ccc1NC(=O)C(=O)Cc1nc2ccc(C(=O)c3ccccc3)cc2nc1O,,> 100 µM (inactive),> 100 µM (inactive),49.2 µM (inactive),> 100 µM (inactive),33.4 µM (inactive),> 100 µM (inactive),,48.6 µM (inactive)
COC(=O)N/N=C/c1oc(-c2cccc([N+](=O)[O-])c2)c(-c2cccc([N+](=O)[O-])c2)c1[N+](=O)[O-],,> 100 µM (inactive),> 100 µM (inactive),> 100 µM (inactive),> 100 µM (inactive),,> 100 µM (inactive),,> 100 µM (inactive)
CC(=O)OC(OC(C)=O)c1ncccc1C(=O)OC(C)C,> 100 µM (inactive),39.6 µM (inactive),> 100 µM (inactive),31.3 µM (inactive),30.1 µM (inactive),> 100 µM (inactive),31.2 µM (inactive),,78.5 µM (inactive)
CN(C)C1=NC2=S(SC(Nc3ccccc3)=N2)S1 (centres undefined),34.4 µM (inactive),32.9 µM (inactive),25 µM (inactive),14.8 µM (inactive),30 µM (inactive),3.47 µM (inactive),27.2 µM (inactive),> 100 µM (inactive),10 µM (inactive)
O=C(Nc1cc(Cl)ccc1Cl)c1cc2cccc(Br)c2oc1=O,,> 100 µM (inactive),> 100 µM (inactive),> 100 µM (inactive),> 100 µM (inactive),> 100 µM (inactive),> 100 µM (inactive),,
CCCCCC(=O)OC[n+]1ccc2c(C)c3[nH]c4ccc(OC)cc4c3c(C)c2c1,0.449 µM (active),> 100 µM (inactive),,0.0341 µM (active),,0.628 µM (active),0.137 µM (active),0.429 µM (active),0.366 µM (active)
CCCCNC(=S)OCCC(C)CCCC(C)C (centres undefined),> 100 µM (inactive),> 100 µM (inactive),> 100 µM (inactive),> 100 µM (inactive),> 100 µM (inactive),> 100 µM (inactive),> 100 µM (inactive),,> 100 µM (inactive)
CCN(CC)CC(=O)NC1c2ccccc2Oc2ccccc21,> 100 µM (inactive),> 100 µM (inactive),,> 100 µM (inactive),> 100 µM (inactive),> 100 µM (inactive),> 100 µM (inactive),,> 100 µM (inactive)
N#CCCN(c1ccc(/C=C2\N=C(Cc3ccccc3)OC2=O)cc1)S(=O)(=O)c1ccccc1,> 100 µM (inactive),> 100 µM (inactive),,> 100 µM (inactive),,> 100 µM (inactive),> 100 µM (inactive),,> 100 µM (inactive)
CC1CCC2c3c([nH]c4ccccc34)C3C(=O)N(c4ccccc4)C(=O)C3C2C1 (centres undefined),10.6 µM (inactive),> 250 µM (inactive),18.9 µM (inactive),40.6 µM (inactive),> 250 µM (inactive),45.5 µM (inactive),> 250 µM (inactive),89.1 µM (inactive),> 250 µM (inactive)
O=C(CN1CCN(c2cccc(Cl)c2)CC1)N1CCc2c([nH]c3ccccc23)C1c1cccnc1 (centres undefined),18.3 µM (inactive),3 µM (inactive),33.2 µM (inactive),6.68 µM (inactive),7.76 µM (inactive),4.25 µM (inactive),7.31 µM (inactive),7.31 µM (inactive),
C/C(CC(=O)Nc1cccc([N+](=O)[O-])c1)=N\NC(=O)C[n+]1ccccc1,> 100 µM (inactive),> 100 µM (inactive),,,> 100 µM (inactive),> 100 µM (inactive),> 100 µM (inactive),,> 100 µM (inactive)
C/C(=N\N(C)C)c1sc(-n2nc(-c3ccccc3)cc2-c2ccccc2)nc1C,> 100 µM (inactive),> 100 µM (inactive),> 100 µM (inactive),> 100 µM (inactive),> 100 µM (inactive),72.6 µM (inactive),> 100 µM (inactive),43.9 µM (inactive),> 100 µM (inactive)
CC(=O)Nc1ccc(/C=C/C(=O)c2sc(-c3cccnc3)nc2C)cc1,> 100 µM (inactive),> 100 µM (inactive),> 100 µM (inactive),> 100 µM (inactive),> 100 µM (inactive),> 100 µM (inactive),> 100 µM (inactive),,
CSc1cccc(-n2c3nc(=O)n(C)c(=O)c-3nc3ccccc32)c1,19.4 µM (inactive),3.54 µM (inactive),13.2 µM (inactive),1.66 µM (inactive),2.07 µM (inactive),3.27 µM (inactive),14 µM (inactive),,13.3 µM (inactive)
